The subject of series [1] is human skeletal α-actin promoter activity. As to the kind of experiment: Skeletal α-actin promoter assay (C2C12 cells transfected with human AR). The class given is cell-based. Particulars: for EC50: C2C12, read-out: EC50, activation of skeletal α-actin promoter; for efficacy, % of DHT: C2C12 mouse muscle cells. The source says: An exemplary assay for measuring AR-mediated gene expression in mouse muscle cells is the human skeletal α-actin assay. A mouse muscle cell line (C2C12, obtained from American Type Cell Culture (ATCC, Rockville, Md.)) can be used in the luciferase reporter assay. An SK α-actin-LUC reporter plasmid is constructed by inserting the skeletal α-actin promoter sequence into a luciferase reporter vector (e.g., by cloning the human skeletal α-actin promoter region from −77 to +202 bp from human liver genomic DNA (Clontech, Palo Alti, Calif.) and inserting the sequence into a pGL3-Basic reporter plasmid (Promega, Madison, Wis.)). The C2C12 cell line can be transiently transfected with a human AR expression plasmid and a luciferase reporter plasmid containing the skeletal α-actin promoter upstream of the luciferase cDNA. The compounds to be tested are added to the cells after transfection and after 24 hours of incubation, the cells are lysed with a detergent-containing buffer and assayed for luciferase activity.
Compound 102 was tested to determine its ability to activate human skeletal α-actin using the skeletal α-actin promoter assay. A mouse muscle cell line (C2C12) was transiently transfected with a human AR expression plasmid and a luciferase reporter plasmid containing the skeletal α-actin promoter upstream of the luciferase cDNA. C2C12 cells (at a concentration of 5×10^5) were seeded in a T25 flask and cultured for 24 hours. The cells were harvested by using trypsin and seeded at 6000 cells/well in 96-well plates. The same day, a non-liposomal formulation, FuGENE 6 reagent (Roche, Indianapolis, Ind.) was used for transfection of the cells. To each well was added 45.5 ng of the skeletal α-actin-LUC reporter plasmid, 4.55 ng pRShAR and 5 ng pRS-BG as carrier DNA. Twenty-four hours after transfection, different concentrations of the solvated compound (10^−10 to 10^−6 M) were added in triplicate to the cells and the cells were incubated for 24 hours. The medium was aspirated and the cells were lysed with a detergent-containing buffer. After addition of Luciferase Assay Buffer to each well, the cells were assayed for luciferase activity using a luminometer to determine the level of transcriptional activation.

The subject of series [2] is ovariectomized mature female rat. As to the kind of experiment: In vivo assay, ovariectomized mature female rats (12 weeks). From the text: In animal models of osteoporosis, androgens increase bone density and strength in male rats (Wakely et al., J Bone & Mineral Research 6: 325-330 (1991) and Vandenput et al., Calcified Tissue International 70: 170-175 (2002)) and female rats (Tobias et al., Am J Physiology 267: E853-E859 (1994) and Coxam et al., Bone 19: 107-114 (1996)). The ovariectomized mature female rat model was used to assess the effects of orally administered compounds provided herein, such as Compound 102, on bone as well as other efficacy and side-effect endpoints including muscle mass, fat mass and clitoral gland weight.
In this assay, approximately three-month old rats were acclimated in a vivarium for one week. After acclimation, rats were anesthetized with Avertin and the ovariectomy (OVX) was performed using the dorsal approach. For the sham procedure, the surgical procedure was conducted per protocol, and the ovaries exteriorized but not removed. After recovery, no further experimental manipulations were performed for seven weeks, at which point the rats were scanned by dual energy x-ray absorptiometry and sorted into experimental groups based upon femoral bone mineral content (BMC). Three dosages of Compound 102 were tested (0.03, 0.3 and 3 mg/kg/day PO). For comparison, ostarine, a known non-steroidal SARM, was tested at the same dosages (0.03, 0.3 and 3 mg/kg/day PO). In addition, reference compounds estradiol and testosterone were administered. Estradiol was administered subcutaneously to one ovariectomized group at a dose of 0.1 mg/kg/day and testosterone propionate was administered subcutaneously to another ovariectomized group at a dose of 1 mg/kg/day.
Treatment continued once daily for 12 weeks, at which point animals were euthanized and tissues were collected for further analysis. Animals received subcutaneous injections of fluorochrome markers for bone histomorphometric analysis. Alizarian Red S was prepared as a 3% solution and given at a dose of 30 mg/kg at the time of the baseline scan. Calcein was administered 10 days and 3 days prior to necropsy.
(§1) After the 14th dose, approximately 250 μL venous blood was collected via percutaneous jugular puncture from the rats at 0, 0.5, 1, 2, 4 and 6 hours post-dosing. The blood samples were collected into lithium-heparin tubes (Becton Dickinson, Franklin Lakes, N.J.). Plasma fractions were collected for pharmacokinetic analysis. Approximately 24 hours after the last dose, rats were sacrificed by cardiac exsanguination, and blood was collected into serum separator tubes (Becton Dickinson), and the gastrocnemius muscle, plantaris muscle, uterus, clitoral glands, clitoris and inguinal fat pads were isolated, blotted and weighed individually. Uterine weight measurements can be inaccurate in surgically ovariectomized rats due to the potential loss of uterine tissue at the tips of the uterine horns during removal of the ovaries. To minimize this variability, the length of the uterine horns was measured and the uterine weight was reported normalized to uterine length. The left femur and lumbar vertebra L5 were wrapped in saline-soaked gauze and stored at −20° C. for biochemical analysis. The right femur and lumbar vertebrae L3-L4 were collected and stored in 70% ethanol for histomorphometry. The right tibia was collected in formalin for histological analysis. The left tibia was collected on dry ice and stored at −20° C. for measurement of alkaline phosphatase activity.
Compound 102 and ostarine individually were formulated in a solution containing 5% Tween-80 polysorbate, 90% PEG-400 polyethylene glycol, and 5% polyvinylpyrrolidone K30. The mixture was stirred and sonicated in a water bath for 30 minutes until the compound dissolved into a solution. After sonication, 1% carboxymethyl cellulose (CMC) in water was added to the solution in a 9:1 ratio (9 parts CMC/water solution to 1 part PEG-400/Tween-80/PVP). Compound 102 and ostarine were administered orally in a volume of 4 mL/kg. […]

Series [3] is described as follows: Pharmacokinetics in ovariectomized female rats (plasma, Day 14). The class given is in vivo, rat. Particulars: OVX female rats; for AUC: female, po; for AUC / Cmax / Tmax: rat, plasma, PO. Here is the method:
as §1
Pharmacokinetic analysis was performed as described in Example 13.

[4] abbreviates: OVX rats, 12 weeks, 3-point bending.
The mark [5] stands for this setting: OVX rats, high dose (3 mg/kg/day PO).
Where [6] appears, read: OVX rats, low dose (0.03 mg/kg/day PO).
[7] abbreviates: OVX rats, maximally effective dose 0.3 mg/kg PO.
[8] abbreviates: Day 14, 0.03 mg/kg, mean ± SD of n = 4.
[9] abbreviates: Day 14, 0.3 mg/kg, mean ± SD of n = 4.
[10] abbreviates: Day 14, 3 mg/kg, mean ± SD of n = 4.

This is an account of results in patent US11358931B2, “Selective androgen receptor modulators (SARMs) and uses thereof” (priority 2007, dated 2022).

“Also recorded” adds a separate entry of the source. Like-named read-outs stand apart in the source and are kept apart here.

As usually defined, the EC50 is the concentration that produces a half-maximal response. What is called Cmax is the highest concentration seen after dosing. For orientation: Tmax means the time at which the peak concentration occurs.

`O=[N+]([O-])c1ccc(N2CCC[C@@H]2[C@@H](O)C(F)(F)F)cc1C(F)(F)F` [LG0893410, R,R-2,2,2-trifluoro-1-[1-(4-nitro-3-trifluoromethyl-phenyl)-pyrrolidin-2-yl]-ethanol]: in series [1], the EC50 was found to be 45.2 nM and the “efficacy, % of DHT” value worked out at 43%.

As for `O=[N+]([O-])c1ccc(N2CCC[C@@H]2[C@H](O)C(F)(F)F)cc1C(F)(F)F` [LG0893411, S, R-2,2,2-trifluoro-1-[1-(4-nitro-3-trifluoromethyl-phenyl)-pyrrolidin-2-yl]-ethanol], in series [1], the EC50 was 85.6 nM and the “efficacy, % of DHT” value is reported as 59%.

For `C[C@](O)(COc1ccc(C#N)cc1)C(=O)Nc1ccc(C#N)c(C(F)(F)F)c1` [ostarine], in series [2] (0.03-3 mg/kg/day PO), the “uterine weight to length ratio versus OVX controls” value is on record as “increased uterine weight to length ratio above estrogen deficient OVX controls in a dose dependent manner”. For the same compound, the “alkaline phosphatase activity from isolated tibiae” value in series [2] (OVX rats, 12 weeks) was “significantly increased”. Further, the “whole femur bending stiffness” value in series [2] (setting [4]) was “slightly more effectively than Compound 102”. Moreover, the “whole femur bending strength” value in series [2] (setting [4]) is “slightly less effectively than Compound 102”. The cortical bone area result in series [2] (OVX rats, 12 weeks, histomorphometry) is recorded as “increased cortical bone area”. Also, in series [2] (OVX rats, 12 weeks, versus vehicle-treated OVX controls), the serum osteocalcin result is “significantly suppressed”. In addition, the “body weight gain from baseline compared to vehicle” value in series [2] (OVX rats, 12 weeks, Compound 102/ostarine 0.03, 0.3, 3 mg/kg/day PO, testosterone propionate 1 mg/kg/day s.c.) was “significantly increased weight gain compared to vehicle at the mid and high dose levels; also recorded: at the low dose there was no significant difference from vehicle”. Also, in series [2] (OVX rats, 12 weeks, any dose, estradiol 0.1, testosterone propionate 1 mg/kg/day s.c.), the “inguinal fat pad weight” value is “neither Compound 102 nor ostarine significantly affected inguinal fat pad weight at any dose”. Moreover, the “uterine weight to length ratio versus sham levels” value in series [2] (OVX rats, high dose (3 mg/kg)) is “significantly (P<0.01) increased above sham levels”. Also, the clitoral gland weight entry in series [2] (setting [5]) is on record as “increased clitoral gland weight”; in series [2] (setting [6]), “Neither Compound 102 nor ostarine affected”. For the same compound, the values for the clitoral weight entry in series [2] (setting [5]) and in series [2] (setting [6]) were “significantly increased clitoral weight” and “did not affect clitoral weight”, respectively. Moreover, in series [2] (setting [6]), the “uterine weight to length ratio versus sham operated controls” value is listed as “significantly (P<0.01) less than sham operated controls”. For the same compound, in series [2] (setting [7]), the “increase of gastrocnemius muscle mass” value is given as 10%. Besides, the “mean change in body weight” value in series [2] (setting [7]) is given as “+65 grams”. Besides, the “clitoral weight, activity versus testosterone” value in series [2] (OVX rats, mid dose (0.3 mg/kg)) was “not significantly different from testosterone”. In series [2] (OVX rats, mid dose (0.3 mg/kg), 0.3 mg/kg), the “clitoral gland weight versus sham” value is listed as “only slightly above the sham level; also recorded: statistically significant (P<0.05)”. Also, the “systemic exposure compared with Compound 102” value in series [3] (equal doses) was “significantly higher exposure”. Moreover, the AUC in series [3] (0.03 mg/kg, Day 14, 0.03 mg/kg, mean ± SD of n = 4, read-out: AUC6) was determined as 125 ± 22 ng·h/mL; in series [3] (0.03 mg/kg, Day 14, 0.03 mg/kg, n = 4, 0 hr conc. substituted for 24 hr, read-out: AUC24) it was 552 ± 118 ng·h/mL; in series [3] (0.3 mg/kg, Day 14, 0.3 mg/kg, mean ± SD of n = 4, read-out: AUC6), 1080 ± 105 ng·h/mL; in series [3] (0.3 mg/kg, Day 14, 0.3 mg/kg, n = 4, 0 hr conc. substituted for 24 hr, read-out: AUC24), 4140 ± 448 ng·h/mL; in series [3] (3 mg/kg, Day 14, 3 mg/kg, mean ± SD of n = 4, read-out: AUC6), 5040 ± 1300 ng·h/mL; in series [3] (3 mg/kg, Day 14, 3 mg/kg, n = 4, 0 hr conc. substituted for 24 hr, read-out: AUC24), 20600 ± 3650 ng·h/mL. Moreover, the values for the Cmax in series [3] (setting [8]), in series [3] (setting [9]) and in series [3] (setting [10]) were 35 ± 7 ng/mL, 332 ± 40 ng/mL and 1480 ± 429 ng/mL, respectively. Besides, the Tmax in series [3] (setting [8]) is 2.6 ± 2.4 h; in series [3] (setting [9]) it was 0.6 ± 0.2 h; in series [3] (setting [10]), 1.1 ± 0.6 h.
